Test results as given in patent US8314256B2, “Modulators of ATP-binding cassette transporters” (Vertex Pharmaceuticals Incorporated, priority 2005, dated 2012).
pEC50: −log10 of the molar value.

Target: T1, ΔF508-CFTR (Homo sapiens, UniProt P13569, DEL508-508)
T1 construct: expressed in transfected cells
Assay: Membrane potential optical assay of ΔF508-CFTR modulation (Table 3 EC50; the table does not name the assay)
Type: cell-based
Description: Membrane Potential Optical Methods for Assaying ΔF508-CFTR Modulation Properties of Compounds
The optical membrane potential assay utilized voltage-sensitive FRET sensors described by Gonzalez and Tsien (See, Gonzalez, J. E. and R. Y. Tsien (1995) “Voltage sensing by fluorescence resonance energy transfer in single cells” Biophys J 69(4): 1272-80, and Gonzalez, J. E. and R. Y. Tsien (1997) “Improved indicators of cell membrane potential that use fluorescence resonance energy transfer” Chem Biol 4(4): 269-77) in combination with instrumentation for measuring fluorescence changes such as the Voltage/Ion Probe Reader (VIPR) (See, Gonzalez, J. E., K. Oades, et al. (1999) “Cell-based assays and instrumentation for screening ion-channel targets” Drug Discov Today 4(9): 431-439).
These voltage sensitive assays are based on the change in fluorescence resonant energy transfer (FRET) between the membrane-soluble, voltage-sensitive dye, DiSBAC2(3), and a fluorescent phospholipid, CC2-DMPE, which is attached to the outer leaflet of the plasma membrane and acts as a FRET donor. Changes in membrane potential (Vm) cause the negatively charged DiSBAC2(3) to redistribute across the plasma membrane and the amount of energy transfer from CC2-DMPE changes accordingly. The changes in fluorescence emission were monitored using VIPR II, which is an integrated liquid handler and fluorescent detector designed to conduct cell-based screens in 96- or 384-well microtiter plates.
Identification of Correction Compounds
To identify small molecules that correct the trafficking defect associated with ΔF508-CFTR; a single-addition HTS assay format was developed. The cells were incubated in serum-free medium for 16 hrs at 37° C. in the presence or absence (negative control) of test compound. As a positive control, cells plated in 384-well plates were incubated for 16 hrs at 27° C. to “temperature-correct” ΔF508-CFTR. The cells were subsequently rinsed 3× with Krebs Ringers solution and loaded with the voltage-sensitive dyes. To activate ΔF508-CFTR, 10 μM forskolin and the CFTR potentiator, genistein (20 μM), were added along with Cl^−-free medium to each well. The addition of Cl^−-free medium promoted Cl^− efflux in response to ΔF508-CFTR activation and the resulting membrane depolarization was optically monitored using the FRET-based voltage-sensor dyes.
Identification of Potentiator Compounds
To identify potentiators of ΔF508-CFTR, a double-addition HTS assay format was developed. During the first addition, a Cl^−-free medium with or without test compound was added to each well. After 22 sec, a second addition of Cl^−-free medium containing 2-10 μM forskolin was added to activate ΔF508-CFTR. The extracellular Cl^− concentration following both additions was 28 mM, which promoted Cl^− efflux in response to ΔF508-CFTR activation and the resulting membrane depolarization was optically monitored using the FRET-based voltage-sensor dyes. Solutions
NIH3T3 mouse fibroblasts stably expressing ΔF508-CFTR are used for optical measurements of membrane potential. The cells are maintained at 37° C. in 5% CO2 and 90% humidity in Dulbecco's modified Eagle's medium supplemented with 2 mM glutamine, 10% fetal bovine serum, 1×NEAA, […]-ME, 1× pen/strep, and 25 mM HEPES in 175 cm^2 culture flasks. For all optical assays, the cells were seeded at 30,000/well in 384-well matrigel-coated plates and cultured for 2 hrs at 37° C. before culturing at 27° C. for 24 hrs. for the potentiator assay. For the correction assays, the cells are cultured at 27° C. or 37° C. with and without compounds for 16-24 hours

T1 sequence (P13569 with tags, fused parts or gaps DEL508-508): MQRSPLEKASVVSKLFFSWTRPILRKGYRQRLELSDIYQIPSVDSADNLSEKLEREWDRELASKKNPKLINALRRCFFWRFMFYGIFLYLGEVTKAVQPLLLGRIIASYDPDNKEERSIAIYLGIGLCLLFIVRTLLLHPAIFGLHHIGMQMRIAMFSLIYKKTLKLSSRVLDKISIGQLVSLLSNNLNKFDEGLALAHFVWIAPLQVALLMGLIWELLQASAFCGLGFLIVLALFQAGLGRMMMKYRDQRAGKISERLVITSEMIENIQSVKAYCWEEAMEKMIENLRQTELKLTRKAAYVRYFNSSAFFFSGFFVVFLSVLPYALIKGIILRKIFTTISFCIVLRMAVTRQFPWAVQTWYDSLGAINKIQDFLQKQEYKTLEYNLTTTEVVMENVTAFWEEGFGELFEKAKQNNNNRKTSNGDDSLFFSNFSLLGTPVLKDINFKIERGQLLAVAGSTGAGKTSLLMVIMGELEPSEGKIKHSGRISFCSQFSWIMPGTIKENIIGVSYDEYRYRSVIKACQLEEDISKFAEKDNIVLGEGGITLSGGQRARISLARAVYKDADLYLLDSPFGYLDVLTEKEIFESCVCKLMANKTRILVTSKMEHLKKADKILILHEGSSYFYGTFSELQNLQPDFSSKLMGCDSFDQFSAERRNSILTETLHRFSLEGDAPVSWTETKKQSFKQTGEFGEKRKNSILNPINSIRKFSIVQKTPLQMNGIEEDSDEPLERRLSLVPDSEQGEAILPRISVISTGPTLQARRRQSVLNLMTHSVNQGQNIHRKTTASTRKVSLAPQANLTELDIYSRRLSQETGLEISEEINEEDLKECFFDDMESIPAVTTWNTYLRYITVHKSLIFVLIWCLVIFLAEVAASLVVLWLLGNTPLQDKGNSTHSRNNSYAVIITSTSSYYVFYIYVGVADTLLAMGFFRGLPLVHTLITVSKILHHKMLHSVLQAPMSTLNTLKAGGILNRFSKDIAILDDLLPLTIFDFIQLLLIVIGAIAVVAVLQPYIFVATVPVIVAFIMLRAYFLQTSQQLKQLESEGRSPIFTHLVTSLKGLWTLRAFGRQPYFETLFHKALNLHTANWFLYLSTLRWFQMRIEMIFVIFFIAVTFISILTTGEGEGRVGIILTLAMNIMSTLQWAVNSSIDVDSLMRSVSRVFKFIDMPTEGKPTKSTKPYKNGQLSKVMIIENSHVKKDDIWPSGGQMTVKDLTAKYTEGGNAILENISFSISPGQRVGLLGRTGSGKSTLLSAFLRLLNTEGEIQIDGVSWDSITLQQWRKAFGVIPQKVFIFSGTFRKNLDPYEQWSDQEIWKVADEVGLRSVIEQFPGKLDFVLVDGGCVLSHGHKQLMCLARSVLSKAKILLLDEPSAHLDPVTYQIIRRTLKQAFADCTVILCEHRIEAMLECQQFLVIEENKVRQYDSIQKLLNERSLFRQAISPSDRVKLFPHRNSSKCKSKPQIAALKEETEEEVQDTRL

Row | pEC50 | Compound
1 | > 6.00 | O=C(NC(c1ccccc1)c1ccccc1)C(=O)c1c[nH]c2ccccc12 [Compound 1, N-Benzhydryl-2-(1H-indol-3-yl)-2-oxo-acetamide]
2 | > 6.00 | O=C(NCCc1ccccc1)C(=O)c1c[nH]c2ccccc12 [Compound 2, 2-(1H-Indol-3-yl)-2-oxo-N-phenethyl-acetamide]
3 | > 6.00 | Cc1ccc(Cn2cc(SCCNC(=O)C(=O)c3c[nH]c4ccccc34)c3ccccc32)cc1 [Compound 3]
4 | < 5.30 | O=C(NC(CN1CCOCC1)c1ccccc1)C(=O)c1c[nH]c2ccccc12 (centres unmarked) [Compound 4]
5 | > 6.00 | O=C(C(=O)N(Cc1ccccc1)Cc1ccccc1)c1c[nH]c2ccccc12 [Compound 5, N,N-Dibenzyl-2-(1H-indol-3-yl)-2-oxo-acetamide]
6 | > 6.00 | O=C(NCc1ccccc1)C(=O)c1c[nH]c2ccccc12 [Compound 6]
7 | 5.30 to 6.00 | COc1ccccc1N1CCN(C(=O)C(=O)c2c[nH]c3ccc(Br)cc23)CC1 [Compound 7]
8 | 5.30 to 6.00 | CC(=O)Nc1ccc(OCCCNC(=O)C(=O)c2c[nH]c3ccc(Br)cc23)cc1 [Compound 8]
9 | < 5.30 | Cn1cc(C(=O)C(=O)NCc2ccccc2)c2ccccc21 [Compound 9]
10 | < 5.30 | Cn1cc(C(=O)C(=O)NCCc2ccccc2)c2ccccc21 [Compound 10, 2-(1-Methyl-1H-indol-3-yl)-2-oxo-N-phenethyl-acetamide]
11 | < 5.30 | Cn1cc(C(=O)C(=O)NC(c2ccccc2)c2ccccc2)c2ccccc21 [Compound 12, N-Benzhydryl-2-(1-methyl-1H-indol-3-yl)-2-oxo-acetamide]
12 | 5.30 to 6.00 | COc1ccc(CCNC(=O)C(=O)c2c[nH]c3ccc(Br)cc23)cc1 [Compound 13]
13 | < 5.30 | CN(Cc1ccccc1)C(=O)C(=O)c1c[nH]c2ccccc12 [Compound 14, N-Benzyl-2-(1H-indol-3-yl)-N-methyl-2-oxo-acetamide]
14 | 5.30 to 6.00 | Cn1cc(C(=O)C(=O)N(Cc2ccccc2)Cc2ccccc2)c2ccccc21 [Compound 15, N,N-Dibenzyl-2-(1-methyl-1H-indol-3-yl)-2-oxo-acetamide]
15 | > 6.00 | O=C(NCCc1ccccc1)C(=O)c1c[nH]c2ccc(Br)cc12 [Compound 16]
16 | 5.30 to 6.00 | O=C(NC(CSCc1ccccc1)CSCc1ccccc1)C(=O)c1c[nH]c2ccccc12 [Compound 17]
17 | > 6.00 | O=C(NCC(c1ccccc1)c1ccccc1)C(=O)c1c[nH]c2ccccc12 [Compound 18, N-(2,2-Diphenylethyl)-2-(1H-indol-3-yl)-2-oxo-acetamide]
